Measured values from the supplement of paper PMC10307832.

Legend:
Experiment in all cases: relative viability (nuclei count vs DMSO), 5 days (fraction); higher = more cells survive
Sunitinib + Vorinostat = compound: CCN(CC)CCNC(=O)c1c(C)[nH]c(/C=C2\C(=O)Nc3ccc(F)cc32)c1C [Sunitinib] + O=C(CCCCCCC(=O)Nc1ccccc1)NO [Vorinostat] (partner 1 µM)
Outline: (§1)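 One day after seeding in 1536-well plates, lung cancer cell lines were dosed by pin tool. Dosing was either single-drug or a fixed anchor-drug dose plus five library-drug doses (not always all listed) in √10 steps. After 5 days, nuclei were stained in one fix-and-stain step and counted on 4× images, and relative viability is the nuclei count of treated wells over that of vehicle wells, given as the median of duplicate plates.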

Sunitinib + Palbociclib = compound: CCN(CC)CCNC(=O)c1c(C)[nH]c(/C=C2\C(=O)Nc3ccc(F)cc32)c1C [Sunitinib] + CC(=O)c1c(C)c2cnc(Nc3ccc(N4CCNCC4)cn3)nc2n(C2CCCC2)c1=O [Palbociclib] (partner 0.5 µM)
Outline: as §1

Sunitinib + Pemetrexed = compound: CCN(CC)CCNC(=O)c1c(C)[nH]c(/C=C2\C(=O)Nc3ccc(F)cc32)c1C [Sunitinib] + Nc1nc2[nH]cc(CCc3ccc(C(=O)N[C@@H](CCC(=O)O)C(=O)O)cc3)c2c(=O)[nH]1 [Pemetrexed] (partner 0.2 µM)
Outline: as §1

Sunitinib + Dasatinib = compound: CCN(CC)CCNC(=O)c1c(C)[nH]c(/C=C2\C(=O)Nc3ccc(F)cc32)c1C [Sunitinib] + Cc1nc(Nc2ncc(C(=O)Nc3c(C)cccc3Cl)s2)cc(N2CCN(CCO)CC2)n1 [Dasatinib] (partner 0.075 µM)
Outline: as §1

| Cell Line | relative viability (Sunitinib + Vorinostat; first compound 0.02 µM) | relative viability (Sunitinib + Vorinostat; first compound 0.06325 µM) | relative viability (Sunitinib + Vorinostat; first compound 0.2 µM) | relative viability (Sunitinib + Vorinostat; first compound 0.6325 µM) | relative viability (Sunitinib + Vorinostat; first compound 2 µM) | relative viability (Sunitinib + Palbociclib; first compound 0.02 µM) | relative viability (Sunitinib + Palbociclib; first compound 0.06325 µM) | relative viability (Sunitinib + Palbociclib; first compound 0.2 µM) | relative viability (Sunitinib + Palbociclib; first compound 0.6325 µM) | relative viability (Sunitinib + Palbociclib; first compound 2 µM) | relative viability (Sunitinib + Pemetrexed; first compound 0.02 µM) | relative viability (Sunitinib + Pemetrexed; first compound 0.06325 µM) | relative viability (Sunitinib + Pemetrexed; first compound 0.2 µM) | relative viability (Sunitinib + Pemetrexed; first compound 0.6325 µM) | relative viability (Sunitinib + Pemetrexed; first compound 2 µM) | relative viability (Sunitinib + Dasatinib; first compound 0.02 µM) | relative viability (Sunitinib + Dasatinib; first compound 0.06325 µM) | relative viability (Sunitinib + Dasatinib; first compound 0.2 µM) | relative viability (Sunitinib + Dasatinib; first compound 0.6325 µM) | relative viability (Sunitinib + Dasatinib; first compound 2 µM) |
| --- | --- | --- | --- | --- | --- | --- | --- | --- | --- | --- | --- | --- | --- | --- | --- | --- | --- | --- | --- | --- |
| PC-3 [JPC-3] | 0.919 | 0.805 | 0.858 | 0.904 | 0.928 | 0.539 | 0.561 | 0.566 | 0.56 | 0.602 | 1.35 | 1.08 | 1.13 | 1.11 | 1.03 | 1.04 | 0.903 | 1.19 | 1.05 | 0.967 |
| PC-14 | 0.689 | 0.74 | 0.853 | 0.834 | 0.665 | 0.509 | 0.462 | 0.562 | 0.527 | 0.474 | 0.137 | 0.158 | 0.135 | 0.132 | 0.153 | 0.291 | 0.232 | 0.269 | 0.385 | 0.261 |
| RERF-LC-KJ | 0.701 | 0.733 | 0.674 | 0.66 | 0.707 | 1.07 | 1.05 | 1.03 | 0.996 | 1.21 | 0.472 | 0.483 | 0.485 | 0.418 | 0.49 | 0.768 | 0.897 | 0.832 | 0.821 | 0.847 |
| SK-LU-1 | 0.821 | 0.7 | 0.821 | 0.86 | 0.657 | 0.381 | 0.4 | 0.4 | 0.411 | 0.356 | 0.944 | 1 | 1.1 | 1.12 | 0.884 | 0.179 | 0.185 | 0.176 | 0.171 | 0.161 |
| SK-MES-1 | 1.07 | 1.09 | 1.24 | 1.29 | 1.08 | 0.309 | 0.322 | 0.363 | 0.397 | 0.388 | 0.851 | 0.946 | 1.09 | 1.13 | 0.903 | 0.354 | 0.457 | 0.341 | 0.319 | 0.308 |
| SW 900 | 0.516 | 0.626 | 0.541 | 0.604 | 0.597 | 0.517 | 0.592 | 0.576 | 0.587 | 0.604 | 0.466 | 0.495 | 0.491 | 0.5 | 0.501 | 0.418 | 0.722 | 0.634 | 0.717 | 0.605 |
| SW 1573 | 0.643 | 0.915 | 0.783 | 1.07 | 0.899 | 0.412 | 0.316 | 0.42 | 0.414 | 0.397 | 0.867 |  | 0.9 | 0.958 | 0.943 | 0.464 | 0.55 | 0.64 | 0.526 | 0.391 |
| UMC-11 | 0.329 | 0.373 | 0.401 | 0.349 | 0.388 | 0.339 | 0.386 | 0.379 | 0.351 | 0.33 | 0.669 | 0.838 | 0.843 | 0.885 | 0.772 | 0.454 | 0.525 | 0.584 | 0.525 | 0.424 |
